{"source": "patent US11517575B2", "about": "“Use of minaprine to reduce tumor growth” (Institut Gustave-Roussy, priority 2019, dated 2022)", "key": {"[1]": {"system": "MCA205 cells", "test": "Cell death of treated MCA205 cells (DiOC6(3)/PI cytofluorometry)", "assay_type": "cell-based, mouse", "details": "10 μM compound alone, 24 h", "experimental": "(§1) FIG. 5. Identification of cannibalism modulators as immunogenic cell death inducers. MCA205 (A) or CT26 (E, I, M, Q) cells were treated with the indicated drugs. After 24 h of coculture with the indicated treatment, cell death was monitored by staining DiOC6(3) and PI, and the percentage of dying (DiOC6(3)^low PI^−, open bars) and dead (DiOC6(3)^low PI^+, closed bars) cells was determined by cytofluorometry. (B-D) MCA205 cells or (F-H, J-L, N-P, R-T) CT26 cells cocultured after x irradiation with the indicated compounds were inoculated subcutaneously into the right flank of […] or BALB/c mice, respectively. Seven days later, the mice were rechallenged with live cells injected into the opposite flank, and tumor growth was monitored (five mice per group).\n(§2) The combination of IRCCE with IR induces efficient antitumor immunity. Considering that immunogenic cell death (ICD) inducers were identified (such as Digoxin, Digitoxin, Lanatoside C or Doxorubicin hydrochloride)^3, 4, 48-51) as IRCCE, the ability of these compounds to induce an antitumor immunity after radiotherapy was evaluated. […] Tumors were evaluated weekly using a common caliper. […] One week later, 5×10^5 untreated control cells were inoculated into the contralateral flank of mice and tumors were evaluated weekly using a common caliper. […]"}, "[2]": {"system": "HCT116 cells", "test": "Screening of chemical libraries for IR-mediated cellular cannibalism (imaging flow cytometry, confocal validation)", "assay_type": "cell-based, human", "details": "8 Gy irradiated HCT116 cells, 10 μM compound, 24 h culture", "experimental": "FIG. 4 Identification of cannibalism modulators triggered by ionizing radiation. Compounds from the Prestwick (A) and CEA (F) libraries were tested for their capacities to induce cellular cannibalism after ionizing radiation. Cannibal cells were detected after homotypic cultures of 8 gray γ-irradiation HCT116 cells in the presence or absence of 10 μM of the Prestwick (A) and CEA […] library compounds. Each dot represents one compound. Representative images are shown in (B, G). (C, H) HCT116 cells were treated with the indicated drugs. After 24 h of treatment, cell death was monitored by staining with 3,3 dihexyloxacarbocyanine iodide (DiOC6(3)) and PI^+, and the percentage of dying (DiOC6(3)^low PI^−, open bars) and dead (DiOC6(3)^low PI^+, closed bars) cells was determined by cytofluorometry. Validation of the cannibalism inducers by fluorescent microscopy. Representative images (D, I) and quantification (E, J) are shown. Results are means s.e.m. of triplicate determinations.\nUntreated HCT116 cells were labeled with CMFDA (green fluorescence, CMFDA^+) or CMTMR, (red fluorescence, CMTMR) and treated HCT116 cells with CMFDA (green fluorescence, CMFDA^+). The following cell mixtures were performed: untreated CMTMR^+ HCT116 cells were mixed with untreated CMFDA^+ HCT116 cells, or untreated CMTMR^+ HCT116 cells were mixed with treated CMFDA^+ HCT116 cells. Then, cells were co-cultured during 24 hours in the presence or absence of the pharmacological inhibitor of ROCK, Y27632 (30 μM), the pan-caspase inhibitor, Z-VAD-fmk (ZVAD, 100 μM), the inhibitor of caspase-1, Ac-YVAD-cmk (YVAD, 100 μM), the necroptosis inhibitor, Necrostatin-1 (NEC1, 30 μM), the inhibitor of the vacuolar type H(+)-ATPase (V-ATPase) inhibiting autophagy, Bafilomycin A1 (BafA1, 50 nM), the inhibitor of Cdks with an anti-mitotic activity, Roscovitine (Rosco, 10 μM). After 24 hours of co-culture, both detached and adherent cells were collected and stained with Hoechst […] (10 μg/mL) during 1 hour at 37° C. in warmed complete medium. To detect phosphatidylserine (PS) exposure and plasma membrane permeability, labeled HCT116 cells were successively incubated with Biotin-AnnexinV (BD Pharmingen) as recommended by manufacturer, […] BV786-Streptavidin (BD Biosciences) and 3 μM DRAQ7 (BioStatus) during 15 minutes at 25° C. After washing with PBS solution, samples were immediately analyzed using an imaging flow cytometer FlowSight® (Amnis®, part of EMD Millipore). Data were acquired at a 20× magnification, using INSPIRE software. The 405 nm, 488 nm, and 561 nm lasers were used for excitation. Brightfield, Annexin V-BV786, DRAQ7, CMFDA, CMTMR and Hoechst […] stainings were detected using respectively channels for 420-480 nm, 745-800 nm, 642-745 nm, 480-560 nm, 595-642 nm and 430-505 nm. At least 1000 events of cells per sample were analyzed. Additional single-labeled controls were prepared to normalize fluorescent signal across different channels. Acquired data were analyzed using the IDEAS analysis software (v6.1; Merck-Millipore). Gating strategy was the following. Cells were gated for focused cells using the Gradient RMS feature. Cells were gated for single cells using the aspect ratio and area features. For the cannibalism detection, cells were gated in the double positive CMFDA^+ and CMTMR^+ staining.\nTo detect PS exposure, plasma membrane permeability and cell cycle progression, cells were after co-culture sequentially labeled with specific fluorescent probes (such as FITC-conjugated AnnexinV, propidium iodide, and Hoechst 33342) and analyzed by flow cytometry. Both detached and adherent cells were collected and stained with Hoechst […] (10 μg/ml) during 1 hour at 37° C. in warmed complete medium. After washing with PBS, HCT116 cells were suspended in 1× binding buffer supplemented with fluorescein isothiocyanate (FITC)-conjugated Annexin V (BD Biosciences) and propidium iodide (PI, 1 μg/mL) (Sigma), as per manufacturer's instructions. […]"}, "[3]": {"system": "CT26 cells", "test": "Anti-tumor vaccination assay, CT26 cells in BALB/c mice", "assay_type": "in vivo, mouse", "details": "8 Gy + 10 μM compound 24 h", "experimental": "as §1\nFIG. 6. Tumor vaccination experiments. CT26 cells were treated for 24 hours with 10 μM VP331 (A, F, K), 10 μM Minaprine (B, G, L), 10 μM Lopa87 (C, H, M), 10 μM SG6163F (D, I, N), 10 μM Azaguanine-8 (8-aza) (E, J, O) alone or combined with 8 Gy ionizing radiation and inoculated (s.c.) into immunocompetent BALB/c mice, which were rechallenged at the opposite flank 7 days later with the same cancer cells. The percentage of tumor-free mice was evaluated three times a week for the following 38 days. Percentage of total tumor free mice (A-E), tumor free-mice at the first injection site (F to J, P) or at the second injection site (K to O, Q) are shown. (*P<0.05, **P<0.01, ***P<0.001, two-way ANOVA).\nThe combination of IRCCE with IR induces efficient antitumor immunity. Considering that immunogenic cell death (ICD) inducers were identified (such as Digoxin, Digitoxin, Lanatoside C or Doxorubicin hydrochloride)^3, 4, 48-51) as IRCCE, the ability of these compounds to induce an antitumor immunity after radiotherapy was evaluated. First, a preclinical approaches was developed to study the immunological effects of IRCCE on two mouse models of carcinoma (colon CT26 carcinoma and fibrosarcoma MCA205). Initially, the ability of the combination of IRCCE+IR to trigger a specific anti-tumor immune response was appreciated using immunocompetent mice through anti-tumor vaccination assays. According to previously published studies^52, the injection of cancer cells succumbing to an immunogenic cell death (ICD) into immunocompetent mice must elicit a protective immune response that is specific for tumor antigens. Thus, 3×10^5 MCA205 cells were first treated with 10 μM of SG6163F for 24 hours. Then, treated cells were inoculated subcutaneously in 200 μl PBS into the lower flank of 8-week-old female C57BL/6 mice. One week later, 3×10^4 untreated control cells were inoculated into the contralateral flank of mice. Tumors were evaluated weekly using a common caliper. Animals bearing tumors that exceeded 20-25% body mass were euthanatized. […] Then, 3×10^6 CT26 cells were irradiated with 8 Gy in presence of 10 μM of SG6163F (FIGS. 5E and 5F), VP331 (FIGS. 5I and 5J), Minaprine dihydrochloride (FIGS. 5M and 5N) or LOPA87 (FIGS. 5Q and 5R) for 24 hours. Then, cells were inoculated as previously described subcutaneously in […] into the lower flank of 8-week-old female BALB/c mice. One week later, 5×10^5 untreated control cells were inoculated into the contralateral flank of mice and tumors were evaluated weekly using a common caliper. As previously mentioned, animals bearing tumors that exceeded 20-25% body mass were euthanatized. The percentage of dying cells in each condition was evaluated by determining with DiOC(6)3/IP staining (FIGS. 5E, 5I, 5M and 5Q). Finally, the ability of these compounds to repress the growth of cancer cells that have been injected 7 days after injection of irradiated and treated cancer cells was appreciated.\nA second anti-tumor vaccination assay was done on CT26 mouse models of carcinoma as previously described. […]"}, "[4]": {"system": "MCA205 cells", "test": "Anti-tumor vaccination assay, MCA205 cells in C57BL/6 mice", "assay_type": "in vivo, mouse", "details": "rechallenge one week later", "experimental": "as §1, §2"}}, "data": [{"smiles": "O=C1NC(c2ccccc2)=N/C1=C\\c1cc2ccccc2c2ccccc12", "note": "[SG6163F]", "values": [{"measurement": "increase of cell death in vitro", "setting": "[1]", "value": "not able to induce a significant increase of cell death"}, {"measurement": "enhancement of IR-mediated cellular cannibalism", "setting": "[2]", "value": "efficient cellular cannibalism enhancer"}, {"measurement": "frequency of mice showing a protective response", "setting": "[3]; first assay: CT26 cells, rechallenge one week later", "value": "significant increase in the frequency of mice showing a protective response"}, {"measurement": "frequency of mice showing a protective response", "setting": "[3]; second assay: CT26 cells, rechallenge 7 days later", "value": "Significant increases in the frequency of mice showing a protective response"}, {"measurement": "protective response after inoculation of untreated cells", "setting": "[4]; MCA205 cells treated with 10 μM compound alone, s.c. in C57BL/6 mice", "value": "did not exhibit a protective response"}, {"measurement": "mice with protective response", "setting": "[4]; MCA205 cells treated with 8 Gy of IR and 10 μM compound, C57BL/6 mice", "value": "3 of 5"}]}]}
